According to US4760088A, “Biocidal derivatives of catechins” (Board of Control of Michigan Technological University, priority 1986, dated 1988):
In brackets after ≈: the same amount, converted by molar mass. Where two headings read alike, the source gives them in different places.

How the values were obtained:
Type in all cases: cell-based
[1] = system: Coriolus versicolor; assay: Biocidal effect on wood-destroying fungi, white-rotters (agar plate mycelium growth); conditions: Trametes versicolor; no growth observed; malt extract agar, 26° C.; max. tested 1000 ppm; read-out: Minimum Inhibitory Concentration (MIC)
Method: (§1) Tests were made to determine the biocidal properties of the epicatechin-4-alkylsulfides prepared in Examples 1 and 2 on different wood-rotting fungi and bacteria.
(§2) Agar plates containing the epicatechin-4-alkylsulfide to be tested were prepared by adding one part of an ethanol solution containing a known concentration of the test compound to 99 parts of molten malt extract agar. After thorough mixing, the medium was poured into 8 cm petri dishes. When the agar had cooled and hardened, the plates were inoculated by placing in the center of the plate a 5 mm diameter plug taken from an agar plate containing an actively growing culture of the test organism and incubated at 26° C. The diameter of the mycelium formed was measured when the culture on a control plate (containing no test compound) had reached the perimeter of the petri dish, or after seven days, whichever came first. Three duplicates were run for each test compound/test organism combination.

[2] = system: Phanerochaete chrysosporium; assay: as above; conditions: Phanerodontia chrysosporium; no growth observed; malt extract agar, 26° C.; max. tested 1000 ppm; read-out: Minimum Inhibitory Concentration (MIC)
Method: as §1, §2

[3] = system: Pycnoporus cinnabarinus; assay: as above; conditions: Trametes cinnabarina; no growth observed; malt extract agar, 26° C.; max. tested 1000 ppm; read-out: Minimum Inhibitory Concentration (MIC)
Method: as §1, §2

[4] = system: Geophyllum trabeum; assay: Biocidal effect on wood-destroying fungi, brown-rotters (agar plate mycelium growth); conditions: no growth observed; malt extract agar, 26° C.; max. tested 1000 ppm; read-out: Minimum Inhibitory Concentration (MIC)
Method: as §1, §2

[5] = system: Poria placenta; assay: as above; conditions: no growth observed; malt extract agar, 26° C.; max. tested 1000 ppm; read-out: Minimum Inhibitory Concentration (MIC)
Method: as §1, §2

[6] = system: Wolfiporia cocos; assay: as above; conditions: no growth observed, malt extract agar, 26° C., max. tested 1000 ppm, read-out: Minimum Inhibitory Concentration (MIC)
Method: as §1, §2

[7] = system: Chaetomium globosom; assay: Biocidal effect on wood-destroying fungi, soft-rotters (agar plate mycelium growth); conditions: no growth observed, malt extract agar, 26° C., max. tested 1000 ppm, read-out: Minimum Inhibitory Concentration (MIC)
Method: as §1, §2

[8] = system: Lecythophora hoffmannii; assay: as above; conditions: Coniochaeta hoffmannii; no growth observed; malt extract agar, 26° C.; max. tested 1000 ppm; read-out: Minimum Inhibitory Concentration (MIC)
Method: as §1, §2

[9] = system: Scytalidium lignicola; assay: as above; conditions: no growth observed, malt extract agar, 26° C., max. tested 1000 ppm, read-out: Minimum Inhibitory Concentration (MIC)
Method: as §1, §2

[10] = system: Enterobacter cloacae; assay: Biocidal effect on bacteria, gram-negative (agar plate); conditions: 24 h, read-out: Minimum Inhibitory Concentration (MIC)
Method: as §1
(§3) Agar plates containing the test compounds were made as above, but with brain-heart infusion agar. The plates were inoculated with a standardized suspension of bacterial cells using a calibrated 3 mm loop and incubated at 35° C. After one day (two days for Micrococcus luteus), the number of resulting bacteria cultures were counted. Streptomycin was used under the same conditions on each test organism for a comparison.

[11] = system: Escherchia coli; assay: as above; conditions: 24 h; no colonies observed; brain-heart infusion agar, 35° C., one day; max. tested 500 ppm; read-out: Minimum Inhibitory Concentration (MIC)
Method: as §1, §3

[12] = system: Klebsiella pneumoneae; assay: as above; conditions: 24 h, read-out: Minimum Inhibitory Concentration (MIC)
Method: as §1, §3

[13] = system: Pseudomonas aeruginosa; assay: as above; conditions: 24 h, read-out: Minimum Inhibitory Concentration (MIC)
Method: as §1, §3

[14] = system: Bacillus cereus; assay: Biocidal effect on bacteria, gram-positive (agar plate); conditions: 24 h, read-out: Minimum Inhibitory Concentration (MIC)
Method: as §1, §3

[15] = system: Micrococcus liteus; assay: as above; conditions: 48 h, read-out: Minimum Inhibitory Concentration (MIC)
Method: as §1, §3

[16] = system: Streptococcus faciens; assay: as above; conditions: 24 h, read-out: Minimum Inhibitory Concentration (MIC)
Method: as §1, §3

[17] = system: fungi; assay: Fungicidal effect against a variety of fungi (overall statement); conditions: at the concentrations tested
Method: as §1, §2

[18] = system: gram-positive bacteria; assay: Effect against gram-positive bacteria compared with streptomycin (overall statement); conditions: versus streptomycin under the same conditions
Method: as §1, §3

[19] = system: bacteria; assay: Bactericidal effect (overall statement); conditions: at the concentrations tested
Method: as §1, §3

[20] = no colonies observed, brain-heart infusion agar, 35° C., one day, max. tested 500 ppm
[21] = no colonies observed, brain-heart infusion agar, 35° C., two days, max. tested 500 ppm

| Structure (SMILES) | MIC [1] [µg/mL] | MIC [2] [µg/mL] | MIC [3] [µg/mL] | MIC [4] [µg/mL] | MIC [5] [µg/mL] | MIC [6] [µg/mL] | MIC [7] [µg/mL] | MIC [8] [µg/mL] | MIC [9] [µg/mL] | MIC [10, 20] [µg/mL] | MIC [11] [µg/mL] | MIC [12, 20] [µg/mL] | MIC [13, 20] [µg/mL] | MIC [14, 20] [µg/mL] | MIC [15, 21] [µg/mL] | MIC [16, 20] [µg/mL] | fungicidal properties [17] | further results |
| --- | --- | --- | --- | --- | --- | --- | --- | --- | --- | --- | --- | --- | --- | --- | --- | --- | --- | --- |
| CCCCCCSC1c2c(O)cc(O)cc2OC(c2ccc(O)c(O)c2)C1O (stereo not shown) [C6] | 800 | 250 | 500 | 1000 | 500 | 500 | 500 | 800 | 80 | 300 (≈ 738 µM) | 300 (≈ 738 µM) | 500 (≈ 1230 µM) | 500 (≈ 1230 µM) | 80 (≈ 197 µM) | 50 (≈ 123 µM) | 200 (≈ 492 µM) |  |  |
| CCCCCCCCSC1c2c(O)cc(O)cc2OC(c2ccc(O)c(O)c2)C1O (stereo not shown) [C8] | 250 | 100 | 1000 | 1000 | 250 | 1000 | 1000 | 400 | 25 |  | 500 (≈ 1150 µM) | 500 (≈ 1150 µM) |  | 20 (≈ 46 µM) | 40 (≈ 92 µM) | 60 (≈ 138 µM) | effective fungicide |  |
| CCCCCCCCCCSC1c2c(O)cc(O)cc2OC(c2ccc(O)c(O)c2)C1O (stereo not shown) [C10] | 200 | 50 |  | 1000 | 1000 |  |  | 300 | 8 | 500 (≈ 1080 µM) | 500 (≈ 1080 µM) | 500 (≈ 1080 µM) | 300 (≈ 648 µM) | 5 (≈ 10.8 µM) | 5 (≈ 10.8 µM) | 30 (≈ 64.8 µM) | effective fungicide | effectiveness against gram-positive bacteria compared with streptomycin [18]: substantially more effective |
| CCCCCCCCCCCCSC1c2c(O)cc(O)cc2OC(c2ccc(O)c(O)c2)C1O (stereo not shown) [C12] | 1000 | 1000 | 1000 | 1000 | 1000 | 1000 | 1000 | 1000 | 100 |  | 500 (≈ 1020 µM) | 500 (≈ 1020 µM) |  | 50 (≈ 102 µM) | 50 (≈ 102 µM) | 75 (≈ 153 µM) |  |  |
| CCCCCCCCCCCCCCCCSC1c2c(O)cc(O)cc2OC(c2ccc(O)c(O)c2)C1O (stereo not shown) [C16] | 1000 | 1000 |  | 1000 | 1000 |  |  | 1000 | 200 | 500 (≈ 914 µM) | 500 (≈ 914 µM) | 500 (≈ 914 µM) | 50 (≈ 91.4 µM) | 75 (≈ 137 µM) | 75 (≈ 137 µM) | 100 (≈ 183 µM) |  |  |
| Oc1cc(O)c2c(c1)O[C@H](c1ccc(O)c(O)c1)[C@H](O)C2 [Epicatechin, reference compound] |  |  |  |  |  |  |  |  |  |  |  |  |  |  |  |  | no fungicidal | bactericidal properties [19]: minimal bactericidal properties |
| [H]/N=C(/N)N[C@H]1[C@H](O)[C@@H](O)[C@H](O[C@@H]2O[C@@H](C)[C@](O)(C=O)[C@H]2O[C@@H]2O[C@@H](CO)[C@H](O)[C@@H](O)[C@@H]2NC)[C@@H](N/C(N)=N\[H])[C@@H]1O [Strep, Streptomycin, reference compound] |  |  |  |  |  |  |  |  |  |  | 5 (≈ 8.6 µM) |  |  |  |  |  |  | MIC [10]: 1 µg/mL (≈ 1.72 µM); MIC [12]: 8 µg/mL (≈ 13.8 µM); MIC [13]: 50 µg/mL (≈ 86 µM); MIC [14]: 20 µg/mL (≈ 34.4 µM); MIC [15]: 8 µg/mL (≈ 13.8 µM); MIC [16]: 50 µg/mL (≈ 86 µM) |
